Results taken from patent US10383861B2, “3-(1H-pyrrolo[2,3-C]pyridin-2-yl)-1H-pyrazolo[3,4-C]pyridines and therapeutic uses thereof” (Samumed, LLC, priority 2015, dated 2019).

Key:
Format in all cases: cell-based
Wnt activity = Wnt activity screening assay, Sp5-Luc reporter gene in SW480 cells; settings: Homo sapiens; for EC50: Sp5-Luc reporter, SW480 cells, overnight incubation; for inhibition at 10 µM: SW480, read-out: percent inhibition at 10 μM
Description: The screening assay for Wnt activity is described as follows. Reporter cell lines can be generated by stably transducing cancer cell lines (e.g., colon cancer) or primary cells (e.g., IEC-6 intestinal cells) with a lentiviral construct that includes a Wnt-responsive promoter driving expression of the firefly luciferase gene.
SW480 colon carcinoma cells were transduced with a lentiviral vector expressing luciferase with a human Sp5 promoter consisting of a sequence of eight TCF/LEF binding sites. SW480 cells stably expressing the Sp5-Luc reporter gene and a hygromycin resistance gene were selected by treatment with 150 μg/mL of hygromycin for 7 days. These stably transduced SW480 cells were expanded in cell culture and used for all further screening activities. […] For Sp5-Luc reporter gene assays, the cells were plated at 4,000 cells/well in 384-well plates with medium containing 1% fetal bovine serum and incubated overnight at 37° C. and 5% CO2. Following incubation, 20 μl of BrightGlo luminescence reagent (Promega) was added to each well of the 384-well assay plates. The plates were placed on an orbital shaker for 2 min and then luminescence was quantified using the Envision (Perkin Elmer) plate reader. Readings were normalized to DMSO only treated cells, and normalized activities were utilized for EC50 calculations using the dose-response log (inhibitor) vs. response -variable slope (four parameters) nonlinear regression feature available in GraphPad Prism 5.0 (or Dotmatics).

IL-6 = IL-6 inhibition in LPS-stimulated THP-1 cells (HTRF); settings: Homo sapiens; for inhibition at 10 µM: THP-1, read-out: percent inhibition at 10 μM; for EC50: THP-1 cells, LPS 500 ng/mL, 22 hours, IL6 HTRF
Protocol: THP-1 cells were cultured in basal media with 1% FBS for 24 hours before the start of the assay. […] THP-1 cells were plated at 5000 cells/well in the 384-well plates and incubated at 37° C. for 2 h. 500 ng/mL of LPS was added after 2 hours and cells were incubated for another 22 hours at 37° C. Plates were spun in a centrifuge for 1 minute at […] and a mixture of anti-IL6 XL665, and anti-IL6 Cryptate diluted in reconstitution buffer (Cisbio Inc.) was added to each well. Following incubation for 3 hrs at room temperature, Homogeneous Time-Resolved Fluorescence (HTRF) was measured using the Envision (Perkin Elmer) at 665 nm and […]. The ratio of fluorescence at 665 nm to 620 nm was used as a readout for IL6 quantification. All samples were processed in duplicate. Readings were normalized to DMSO treated cells and normalized activities were utilized for EC50 calculations using the dose-response log (inhibitor) vs. response -variable slope (four parameters) nonlinear regression feature available in GraphPad Prism 5.0 (or Dotmatics).

SW480 colon cancer cells = assay: Cell viability assay (CellTiter-Blue) in SW480 colon cancer cells; settings: Homo sapiens; for EC50: 96 h, SW480 cell viability, four days, CellTiter-Blue; for inhibition at 10 µM: SW480, read-out: percent inhibition at 10 μM
Protocol: Representative compounds were screened using the following assay procedure to assess the effect on cell viability as described below.
Approximately 2×10^3 SW480 colon cancer cells were seeded into each well and allowed to incubate in the presence or absence of compound for four days at 37° C./5% CO2. Eight replicates of DMSO-treated cells served as controls and cells treated with compound were performed in duplicate.
After incubation, 20 μL of CellTiter-Blue (Promega) was added to each well allowed to incubate for approximately 3 hours. This reagent was a buffered solution which contains resazurin, metabolically active cells were able to reduce rezarurin (blue) into resorufin (pink) which was highly fluorescent. This measured fluorescence was used as a readout for cell viability.

[1] = system: primary human mesenchymal stem cells (hMSCs); assay: Induction of chondrogenesis in hMSCs (nodule count, Rhodamine B/Nile Red); settings: 6 days; for EC50: concentration required to induce 50% levels of chondrogenesis vs TGF-β3, read-out: Conc (nM) of 50% TGF-β3 activity; for Emax: relative to TGF-β3 (10 ng/mL) positive control, read-out: Max. Activity as % TGF-β3 activity
Description: Representative compounds were screened using primary human mesenchymal stem cells (hMSCs) to determine their ability to induce chondrogenesis (process by which cartilage is developed).
Primary human mesenchymal stem cells (hMSCs) were purchased from Lonza (Walkersville, Md.) and expanded in Mesenchymal Stem Cell Growth Media (Lonza). Cells between passage 3 and 6 were used for the experiments.
To image chondrogenic nodules, the cells were fixed using 4% formaldehyde (Electron Microscopy Sciences), and stained with 2 μg/mL Rhodamine B (Sigma-Aldrich) and 20 μM Nile Red (Sigma-Aldrich) [Johnson K., et.al, A Stem Cell-Based Approach to Cartilage Repair, Science, (2012). […] Number of nodules in each well was normalized to the average of 3 DMSO treated wells on the same plate using Excel (Microsoft Inc.). The normalized averages (fold change over DMSO) of 3 replicate wells for each compound concentration were calculated. Due to solubility limitations of some of the compounds, curve fitting was incomplete leading to inaccurate EC50 determinations.
Using TGF-β3 as a positive control, the concentration of representative compounds required to induce 50% levels of chondrogenesis is reported. In addition, the maximum activity of each compound and the respective dose that each compound reached maximum chondrogenesis activity is reported.

[2] = system: primary human fibroblasts derived from IPF patients (LL29 cells); assay: Inhibition of the fibrotic process: αSMA staining in TGF-β1 treated LL29 fibroblasts; settings: Fibroblast; for EC50: 96 h, LL29 cells, TGF-β1 20 ng/mL, 4 days, % αSMA positive cells; for inhibition at 10 µM: read-out: percent inhibition at 10 μM
Protocol: Representative compounds were screened using primary human fibroblasts (derived from IPF patients) treated with TGF-β1 to determine their ability to inhibit the fibrotic process.
LL29 cells are plated at 1,500 cells/well in 80 μL/well F12 medium supplemented with 1% Fetal Bovine Serum. […] Wells treated with TGF-β1 and containing DMSO were used as controls. […] Following incubation for 4 days, SYTOX green nucleic acid stain (Life Technologies [Thermo Fisher Scientific]) was added to the wells at a final concentration of 1 μM and incubated at room temperature for 30 min.

SMILES | EC50 (Wnt activity) [µM] | inhibition at 10 µM (IL-6) [%] | EC50 (IL-6) [µM] | EC50 (SW480 colon cancer cells) [µM] | EC50 [1] [nM] | Emax [1] [%] | EC50 [2] [µM] | inhibition at 10 µM (SW480 colon cancer cells) [%] | inhibition at 10 µM [2] [%] | inhibition at 10 µM (Wnt activity) [%]
Fc1cccc(-c2cncc3[nH]c(-c4n[nH]c5cnc(-c6cccnc6)cc45)cc23)c1 [Compound 4, 3-(4-(3-Fluorophenyl)-1H-pyrrolo[2,3-c]pyridin-2-yl)-5-(pyridin-3-yl)-1H-pyrazolo[3,4-c]pyridine] | 0.89 | 26.8 | > 10 | 0.734 | 2700 | 64 | 0.211 | – | – | –
CC(C)C(=O)Nc1cncc(-c2cc3c(-c4cc5c(-c6cccc(F)c6)cncc5[nH]4)n[nH]c3cn2)c1 [Compound 9, N-(5-(3-(4-(3-Fluorophenyl)-1H-pyrrolo[2,3-c]pyridin-2-yl)-1H-pyrazolo[3,4-c]pyridin-5-yl)pyridin-3-yl)isobutyramide] | 1.81 | – | 8.26 | 4.34 | – | 42 | 1.79 | – | – | –
Fc1cccc(-c2cncc3[nH]c(-c4n[nH]c5cnc(-c6cncc(CN7CCCC7)c6)cc45)cc23)c1 [Compound 14, 3-(4-(3-Fluorophenyl)-1H-pyrrolo[2,3-c]pyridin-2-yl)-5-(5-(pyrrolidin-1-ylmethyl)pyridin-3-yl)-1H-pyrazolo[3,4-c]pyridine] | 3.97 | 48.2 | > 10 | 5.69 | 100 | 81 | 3.54 | – | – | –
Fc1cccc(-c2cncc3[nH]c(-c4n[nH]c5cnc(-c6cncnc6)cc45)cc23)c1 [Compound 27, 3-(4-(3-Fluorophenyl)-1H-pyrrolo[2,3-c]pyridin-2-yl)-5-(pyrimidin-5-yl)-1H-pyrazolo[3,4-c]pyridine] | 0.584 | – | 3.06 | 1.1 | 10 | 56 | 0.432 | – | – | –
Fc1ccc(-c2cncc3[nH]c(-c4n[nH]c5cnc(-c6cncc(CN7CCC(F)(F)C7)c6)cc45)cc23)cc1 [Compound 54, 5-(5-((3,3-Difluoropyrrolidin-1-yl)methyl)pyridin-3-yl)-3-(4-(4-fluorophenyl)-1H-pyrrolo[2,3-c]pyridin-2-yl)-1H-pyrazolo[3,4-c]pyridine] | 3.26 | 11.2 | > 10 | > 10 | 100 | 78 | 9.98 | 38.6 | – | –
Fc1ccc(-c2cncc3[nH]c(-c4n[nH]c5cnc(-c6cncnc6)cc45)cc23)cc1 [Compound 55, 3-(4-(4-Fluorophenyl)-1H-pyrrolo[2,3-c]pyridin-2-yl)-5-(pyrimidin-5-yl)-1H-pyrazolo[3,4-c]pyridine] | 0.555 | – | 0.975 | 0.264 | 900 | 81 | > 10 | – | 56.4 | –
Nc1cncc(-c2cc3c(-c4cc5c(-c6ccccc6F)cncc5[nH]4)n[nH]c3cn2)c1 [Compound 59, 5-(3-(4-(2-Fluorophenyl)-1H-pyrrolo[2,3-c]pyridin-2-yl)-1H-pyrazolo[3,4-c]pyridin-5-yl)pyridin-3-amine] | 1.63 | – | 3.61 | 3.4 | – | 16 | 1.77 | – | – | –
CCNCc1cncc(-c2cc3c(-c4cc5c(-c6ccccc6F)cncc5[nH]4)n[nH]c3cn2)c1 [Compound 62, N-((5-(3-(4-(2-Fluorophenyl)-1H-pyrrolo[2,3-c]pyridin-2-yl)-1H-pyrazolo[3,4-c]pyridin-5-yl)pyridin-3-yl)methyl)ethanamine] | 9.13 | – | 3.66 | > 10 | – | 21 | 2.64 | 44.4 | – | –
CN(C)Cc1cncc(-c2cc3c(-c4cc5c(-c6ccccc6F)cncc5[nH]4)n[nH]c3cn2)c1 [Compound 69, 1-(5-(3-(4-(2-Fluorophenyl)-1H-pyrrolo[2,3-c]pyridin-2-yl)-1H-pyrazolo[3,4-c]pyridin-5-yl)pyridin-3-yl)-N,N-dimethylmethanamine] | > 10 | 24.7 | > 10 | 6.31 | 2700 | 54 | 9.72 | – | – | 49.2
c1cncc(-c2cc3c(-c4cc5c(-c6cccnc6)cncc5[nH]4)n[nH]c3cn2)c1 [Compound 88, 5-(Pyridin-3-yl)-3-(4-(pyridin-3-yl)-1H-pyrrolo[2,3-c]pyridin-2-yl)-1H-pyrazolo[3,4-c]pyridine] | 1.34 | 36.6 | > 10 | > 10 | 100 | 76 | > 10 | 37.4 | 82.9 | –
CCNCc1cncc(-c2cc3c(-c4cc5c(-c6cccnc6)cncc5[nH]4)n[nH]c3cn2)c1 [Compound 90, N-((5-(3-(4-(Pyridin-3-yl)-1H-pyrrolo[2,3-c]pyridin-2-yl)-1H-pyrazolo[3,4-c]pyridin-5-yl)pyridin-3-yl)methyl)ethanamine] | 3.73 | – | 1.06 | > 10 | 10 | 68 | > 10 | 13 | 0 | –
FC1(F)CCN(Cc2cncc(-c3cc4c(-c5cc6c(-c7cccnc7)cncc6[nH]5)n[nH]c4cn3)c2)C1 [Compound 110, 5-(5-((3,3-Difluoropyrrolidin-1-yl)methyl)pyridin-3-yl)-3-(4-(pyridin-3-yl)-1H-pyrrolo[2,3-c]pyridin-2-yl)-1H-pyrazolo[3,4-c]pyridine] | 0.914 | – | 0.688 | 2.14 | 2700 | 54 | 0.534 | – | – | –
Nc1cncc(-c2cc3c(-c4cc5c(-c6ccncc6)cncc5[nH]4)n[nH]c3cn2)c1 [Compound 115, 5-(3-(4-(Pyridin-4-yl)-1H-pyrrolo[2,3-c]pyridin-2-yl)-1H-pyrazolo[3,4-c]pyridin-5-yl)pyridin-3-amine] | > 10 | 4.3 | > 10 | > 10 | 10 | 52 | 3.74 | 22 | – | 14.2
